Test results reported in US20070225213A1, “Nucleic acid carriers for delivery of therapeutic agents” (priority 2006, published 2007).

How the values were obtained:
[1] = In vivo MTN recovery in mouse urine after single i.v. dose (Example 17)
Protocol: NAC-MTN or MTN alone was administered intravenously to mice via the tail vein. […] After 2 hours, NAC-MTN or MTN was detected in urine, quantified by absorbance at 665 nm, and reported as % of total.
Procedure. […] White mice, n=2 were tail vein injected with 0.25 ml of either NAC-MTN or MTN alone. […] MTN was quantified in mouse urine by absorbance of 0.2 ml sample at 665 nm, and converted to mg/ml using an MTN standard curve.
To determine if NAC-MTN was excreted in urine as a complex, MTN fluorescence due to unbound NAC was assayed by an addition method. DNA was added to urine from both groups and subsequent change in fluorescence was measured.

MCF7 cells = assay: Drug loading vs toxicity at fixed [drug], MTT viability assay (Example 4); format: cell-based, human; conditions: Drug only, without carrier; 0.058 mM MTN; 72 hours
Protocol: FIG. 1. […] NAC-MTN or NAC-DOX were prepared at different weight:weight % of drug:nucleic acid and incubated in cells. For each sample and corresponding % loading, the total drug was held constant at 0.058 mM MTN or 0.1 mM DOX. After incubation in cells, cell viability was assayed via mitochondrial dehydrogenase activity against 3-[4,5-dimethylthiazol-2-yl]-2,5-diphenyl tetrazolium bromide (MTT) and reported as % toxicity relative to untreated cells.
Mitoxantrone (MTN, Sigma Aldrich) and Doxorubicin HCl (DOX) were diluted in HBSS to 1 mg/ml final. DNA, from degraded herring sperm DNA <40 bp (HSDNA, Sigma Aldrich), was prepared in water at 10 mg/ml. The drug was diluted in water or HBSS first, followed by addition of the DNA, in order to prevent precipitation. Precipitation of drug was especially a concern at 40% loading of MTN, which is the loading limit for HSDNA (degraded) and so the DNA is added slowly to the diluted MTN (the reverse addition leads to precipitation). All NAC-MTN formulation stocks were prepared at 0.15 mg/ml final MTN, and different concentration of DNA in order to give 15, 25, and 35.7% final drug loading w/w % of MTN/DNA in 0.5 ml final volume. All NAC-DOX formulations were prepared at 0.3 mg/ml final DOX, and either 5, 10, or 15% loaded drug weight/weight % of DOX/DNA in 0.5 ml final volume. […]

human MCF-7 cells = assay: Visually scored toxicity of NAC-MTN / NAC-DOX at fixed loading (Example 3); format: cell-based; conditions: 5.6 ug/ml final drug; 5.1% drug loading; 16 hour incubation
Protocol: Toxicity of NAC-MTN or NAC-DOX, at 50, 16.9, 5.6, and 1.9 ug/ml final drug concentration and 5.1 % drug loading in human MCF-7 cells. Sample A: 15 mg of HSDNA (EX031804A) was combined with 0.76 mg MTN(mw 517.4) or (sample B) 0.76 mg DOX (mw 579.99) to give 152 ug/ml final drug and 5.1% loading in 5 ml final vol. Samples C, D were MTN, or DOX only controls at equivalent final [drug] without HSDNA. Sample E was HSDNA, no drug and sample F was H2O only. MCF-7 cells were trypsinized and plated out previously. Triplicate samples were diluted 0.1 ml in 0.2 ml 1× media to give 3× fold serial dilution in 0.2 ml final. After 16 hour incubation the cells were visually inspected for signs of toxicity. Toxicity was scored as the following: 50%=one half all cells rounded, un-adhered or crenated.

NIH3T3 = assay: Effect of plating time on uptake of NAC-MTN and MTN, fluorescence (Example 11); format: cell-based, mouse; conditions: cells treated <1 hour after plating
Protocol: The effect of plating time on the differential rates of uptake between NAC-MTN and MTN were assayed in cells treated <1 hour and 24 hours after plating.
On day 1, MCF7, COS7, 3T3, and BHK21 cells were plated out in a standard tissue culture plate. After incubation of 20 minutes samples were added to cells in rows A, C, E, and G. Cells were incubated at 37C in a standard atmosphere of 5%CO2.
On day 2, samples were added to rows D, F, and H and the fluorescence was obtained EX620/EM680 S=80. Samples were removed from A,C,E and G, replaced with media and fluorescence read again. On day 2 observed significant drug toxicity in cells of rows A,C, E, G. Sample addition was postponed in row B since MCF7 were not yet confluent.
On day 3, added samples to cells in row B containing confluent MCF7's, removed samples from rows D, F, and H replaced with media and read fluorescence.
Fluorescence data from cells taken after removal of media was used to quantitate total MTN retained in the cells. Fluorescence data were converted to mg/ml MTN using a standard curve prepared with free MTN or NAC-MTN.
The percentage difference in fluorescence between cells treated with NAC-MTN or MTN alone was used to compare relative drug uptake.

[2] = Elapsed Time 2.5 hr, 0.281 mg MTN i.v.

With O=C1c2c(O)ccc(O)c2C(=O)c2c(NCCNCCO)ccc(NCCNCCO)c21 [MTN, mitoxantrone] the “FLUOR. (mouse urine)” value [1, 2] was 4086, the “MTN % recov. in urine (% of total dose)” value [1, 2] was 1.9% and the “FLUOR. (mouse urine)” value ([1]; Elapsed Time 5 hr) was 4405. The “MTN % recov. in urine (% of total dose)” value ([1]; Elapsed Time 5 hr) was 1.6%, the “FLUOR. (mouse urine)” value ([1]; Elapsed Time 8 hr) was 4455 and the “MTN % recov. in urine (% of total dose)” value ([1]; Elapsed Time 8 hr) was 3.8%. The “% Tox” value (MCF7 cells) was 79%, the “Toxicity (visual score)” value (human MCF-7 cells) was 90% and the “FLUOR (MTN fluorescence in cells)” value (NIH3T3) was 18530.
